A short description of the series: gradient 5% acetonitrile 3 min, to 50% in 2 min, to 85% in 15 min, held 3 min, 100 µL/min. Conditions: column: Zorbax Extend-C18 2.1 x 50 mm; eluents: water / acetonitrile, 0.1% formic acid. The method in brief: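 Each retention time is based on an adduct peak selected computationally and verified by manual inspection. Measurements used HPLC–quadrupole time-of-flight mass spectrometry in positive and negative ionization mode on mixtures of ~100 pure standards. Chromatography ran on a Zorbax Extend-C18 column (2.1 × 50 mm, 1.8 μm) at 100 μL/min with water and acetonitrile, each containing 0.1% formic acid, and dead and dwell volumes of 40 μL and 900 μL.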
Take `O=C(NCCc1c[nH]c2ccccc12)C1CCN(c2nnc(N3CCCCC3=O)s2)CC1`: the RP-LC retention time was found to be 709 s. Consider `O=C(NCCOc1cccc(C(F)(F)F)c1)c1ccccc1Cl`, for which the RP-LC retention time stood at 907 s. In turn, `Fc1cccc(Cn2cc(-c3noc(-c4ccc5cc[nH]c5c4)n3)nn2)c1` returned an RP-LC retention time of 996 s. Then `COc1ccc(OC)c(NC(=O)CN2C(=O)CC(c3ccccc3)=Nc3ccccc32)c1`, with 982 s. As for `Cc1cccc(NC(=O)N2CCCC2c2c(C)noc2C)c1` (centres undefined), the RP-LC retention time worked out at 771 s. In turn, `NC(=O)[C@@H]1C[C@H](Oc2cccnc2)CN1C(=O)c1cccs1` gave an RP-LC retention time of 532 s. Turning to `O=C(NCCc1cccs1)C1CN(S(=O)(=O)C2CC2)CC12CCCCC2` (centres undefined), the RP-LC retention time amounted to 934 s. With `CC1(c2noc(C3CC3)n2)CCN(C(=O)C2CCN(S(=O)(=O)N3CCOCC3)CC2)CC1` the figure was 784 s; with `CCCN1C(=O)COc2ccc(-c3csc(NC(=O)c4ccc(OC)c(OC)c4)n3)cc21`, 971 s; with `O=C(COc1ccccc1)Nc1ccc2c(c1)N(C(=O)c1ccco1)CCC2`, 899 s. In the case of `O=C(O)C1CCCN(CCC=C(c2ccccc2)c2ccccc2)C1` (centres undefined), the RP-LC retention time was 783 s. With `O=C(Nc1cccc(Cl)c1)N1CCC(N2CCN(Cc3ccccc3)C(=O)C2=O)CC1` the figure was 736 s; with `Cn1nc(-c2cccc(NC(=O)c3ccc4ccccc4n3)c2)ccc1=O`, 829 s; with `CC(=O)N1CCc2sc(S(=O)(=O)N3CCN(c4cc(C)ccc4C)CC3)cc2C1`, 1010 s.

`Cn1c(=O)c2nc(S(=O)(=O)CCC(=O)Nc3ccc(F)cc3F)n(C)c2n(C)c1=O` gave an RP-LC retention time of 737 s. For the compound `Cc1ccc(Nc2c(-c3ccc(O)cc3)nc3ccc(C)cn23)cc1`, the RP-LC retention time worked out at 721 s. Then `O=C(CCC1CCCC1)Nc1nc(-c2ccc3ccccc3c2)cs1`, with 1340 s; and `O=C(NC1CCCN(c2cc(-c3ccccc3)[nH]n2)C1)c1ccc2[nH]ccc2c1` (centres undefined), with 729 s. Then `CN(C)C[C@@H]1CN(c2ccccn2)C[C@H]1NC(=O)c1ccc2ccccc2n1`, with 567 s; and `Cc1ccc(-c2cc(C(=O)N3CCC(NC(=O)Cc4cccs4)CC3)[nH]n2)c(C)c1`, with 776 s; and `Cc1cc(C)n(CCNC(=O)c2nc3ccccc3s2)n1`, with 708 s.

With `O=C(NCCc1cccs1)C1CCN(c2cnn(Cc3ccccc3)c(=O)c2)CC1`, the RP-LC retention time amounted to 765 s.

In turn, `CCCCn1c(SCc2nc(-c3ccc(OCC)cc3)no2)nc2cc3c(cc2c1=O)OCO3` gave an RP-LC retention time of 1390 s. With `CC1(C(=O)NCc2ccc(F)cc2)CCCN(C(=O)Nc2ccccc2Cl)C1` (centres undefined) the figure was 941 s; with `CS(=O)(=O)Nc1cccc(NC(=O)c2ccc(N3CCOCC3)nn2)c1`, 633 s; with `COc1ccc(Cl)cc1NC(=O)C1CC(=O)N(c2cccc(NC(C)=O)c2)C1` (centres undefined), 740 s.

On to `CC(=O)Nc1ccc(C2(C(=O)NCc3ccco3)CCC2)cc1`, for which the RP-LC retention time turned out to be 691 s.

As for `Cc1ccc([N+](=O)[O-])cc1S(=O)(=O)N1CCN(c2cccc(Cl)c2)CC1`, the RP-LC retention time stood at 618 s. Consider `CCOc1ccc(C(=O)NCc2c(C)noc2C)cc1`, for which the RP-LC retention time was 733 s.

`CC(C)NC(=O)Cn1nc2c3cc(-c4ccc(F)cc4)nn3ccn2c1=O` returned an RP-LC retention time of 785 s. Then `O=c1c2cc(-c3ccc(Br)cc3)nn2cnn1Cc1nc(-c2ccccc2)no1`, with 1190 s; and `CCCc1cc(N2CCN(C(=O)COc3ccc(F)cc3)CC2)nc2nnc(C)n12`, with 645 s; and `CNC(=O)CN(C)C(=O)c1cc2c(s1)N(CC1CC1)CCCC2`, with 818 s. With `Cc1nc2cc(-c3noc(-c4cccc(F)c4)n3)ccc2o1`, the RP-LC retention time came to 1110 s. Compound `CCOC(=O)c1nc(Nc2cc(C)c(Cl)cc2OC)c2ccccc2n1` yielded an RP-LC retention time of 1130 s. With `Clc1cccc(Cc2nc(-c3ccc(-n4ccnc4)nc3)no2)c1` the figure was 764 s; with `COc1ccc(-c2noc(C3CC(=O)N(c4ccc(C)c(F)c4)C3)n2)cc1OC` (centres undefined), 984 s. Then `COc1ccc(NC(=O)c2c(O)c3cccnc3n(-c3ccccc3)c2=O)cc1OC`, with 800 s. `Cc1ccc(C)c(NC(=O)N2C[C@H](c3nc(-c4ccncc4)no3)[C@@H](C)C2)c1` returned an RP-LC retention time of 830 s. Turning to `Cc1nc(CCNC(=O)[C@H]2CCCN2C(=O)c2ccccc2Cl)cs1`, the RP-LC retention time came to 659 s. Then `Cc1nnsc1C(=O)Nc1nnc(SCC(=O)Nc2ccc(F)c(Cl)c2)s1`, with 813 s.

In turn, `CCOC(=O)c1c(C)oc2nc(C)nc(NCCCN(CC)c3cccc(C)c3)c12` came in with an RP-LC retention time of 812 s. With `O=C(c1ccsc1)N1CC(Oc2ccc(-c3nc(-c4ccccc4)no3)cc2)C1` the figure was 1120 s. Regarding `O=C(Nc1ccc(Cl)c(Cl)c1)N1CCN(Cc2ccsc2)CC1`, the RP-LC retention time stood at 598 s.

As for `Cc1nc(-c2ccccc2)sc1C(=O)N1CCC(CC(=O)N2CCOCC2)CC1`, the RP-LC retention time amounted to 667 s. `CN(C(=O)c1c2c(cn(-c3ccccc3)c1=O)C(=O)CC(C)(C)C2)c1ccc(F)cc1` yielded an RP-LC retention time of 835 s.

On to `Cc1ccn2cc(-c3ccc(NS(=O)(=O)c4ccc(F)cc4)cc3)nc2n1`, for which the RP-LC retention time was 649 s. Then `COc1ccccc1CNC1=NCCNC12CCN(S(=O)(=O)c1ccc(C)cc1)CC2`, with 743 s. `COc1ccc(NC(=O)c2cc(C)n3nccc3n2)c(C)c1` registered an RP-LC retention time of 886 s.

For the compound `COCCn1cc(CCNC(=O)Nc2ccc(C)c(F)c2)c2cccnc21`, the RP-LC retention time worked out at 772 s. Consider `O=C(NCCCc1ccccc1)c1nnc(-c2ccc(S(=O)(=O)N3CCCC3)cc2)o1`, for which the RP-LC retention time was determined as 971 s. Then `CC(C)COc1ccc(C(=O)N(Cc2ccc(Br)o2)C2CCS(=O)(=O)C2)cc1` (centres undefined), with 1050 s; and `CC(Oc1ccccc1F)C(=O)Nc1ccc(-c2nc(-c3ccccc3)no2)cc1` (centres undefined), with 1260 s. `CC(C)n1nc(CNC(=O)c2ccsc2)c2ccccc21` came in with an RP-LC retention time of 800 s. On to `CCN1C(=O)c2cccnc2Sc2cc(C(=O)N3CCCC3)ccc21`, for which the RP-LC retention time is 684 s. Turning to `CCn1c(C(=O)NCc2ccccc2)cc2sc(Cl)cc21`, the RP-LC retention time was 1110 s. Then `c1ccc(N2CCN(Cc3nc(-c4ccc(N5CCSCC5)nc4)no3)CC2)cc1`, with 937 s; and `Cc1csc(NC(=O)Cn2nc3c(cc2=O)CCCC3)n1`, with 683 s; and `O=C(CCn1cnc2cc(-c3noc(-c4cccc(F)c4)n3)ccc21)N1CCCC1`, with 765 s. With `CCCC(Nc1nc(C(=O)OCC)nc2ccccc12)c1cccs1` (centres undefined) the figure was 933 s; with `O=C(NCCc1csc(-c2ccccc2)n1)C1CCN(C(=O)c2ccco2)CC1`, 749 s. Then `O=C(Cn1nc(N2CCCCCC2)c2ccccc2c1=O)Nc1ccccc1F`, with 1120 s. For `CCCc1cc(N2CCN(C(=O)c3ccccc3)CC2)nc2nncn12`, the RP-LC retention time came to 608 s. Then `Cc1cc(C)n(CCNC(=O)c2ccsc2)n1`, with 593 s; and `c1ccc2c(Oc3nc(Nc4ccc(N5CCOCC5)cc4)c4ncn(C5CCCCC5)c4n3)cccc2c1`, with 1180 s. With `CCn1nccc1-c1cccc(-c2noc(-c3ccc(Cl)cc3)n2)c1` the figure was 1340 s; with `COC(=O)c1ccc(NC(=O)Cn2ccc3ccc(-c4nnc(C)o4)cc32)cc1`, 776 s. As for `Cc1ccc(NC(=O)N2CCCC2c2nc(-c3ccccc3C)no2)cc1C` (centres undefined), the RP-LC retention time is 593 s. Then `COc1ccc(-c2cc3nn(CC(=O)Nc4ccc(C)cc4F)c(=O)n3c(C)n2)cc1`, with 963 s; and `CCCN1C(=O)c2c(C(=O)NCCc3cccc(C)c3)ncn2CC1(C)C(=O)NC1CCCC1` (centres undefined), with 918 s; and `COC(=O)c1c(NCCN2CCCc3ccccc32)c2cccc(Cl)c2[nH]c1=O`, with 955 s. Consider `Cc1ccccc1Nc1c(-c2ccccc2)nc2ccc(Cl)cn12`, for which the RP-LC retention time is 869 s. With `Cc1cc2c(c(=O)n(-c3ccccc3)c(=O)n2CC(=O)Nc2ccc(F)cc2)n1C`, the RP-LC retention time is 797 s. On to `CC1CCN(C(=O)c2nnc(-c3ccc(S(=O)(=O)N4CCOCC4)cc3)o2)CC1`, for which the RP-LC retention time turned out to be 866 s. For the compound `Cc1ccc(NC(=O)N2CCC(C(C)C(=O)Nc3cc(F)ccc3F)CC2)cc1` (centres undefined), the RP-LC retention time is 653 s.

In the case of `CCCN(CC1CC1)C(=O)c1nn(CCOC)c2c1CNCC2`, the RP-LC retention time is 567 s. In turn, `Cc1cc(S(=O)(=O)N2CCOC23CCN(C(=O)C2CC2)CC3)ccc1F` had an RP-LC retention time of 789 s. As for `Cc1csc(NC(=O)CSc2ccc(-c3cccnc3)nn2)n1`, the RP-LC retention time was 589 s. Then `CCOc1ccc(S(=O)(=O)N2CCC(C(=O)NCc3cccnc3)CC2)cc1`, with 623 s.

These data come from the METLIN SMRT retention time set (Domingo-Almenara et al. 2019).
